Activity calls are given as the source filed them. The rule behind the calls is not given here.
Test system: FXN GAA850 promoter luciferase reporter, luminescence
Assay: expanded-repeat frataxin promoter luciferase activation – cell-based, luminescence, GAA850 repeat, dose response (AID 651792)

Row | SMILES | EC50
1 | COc1ccccc1-c1nnc(Nc2nc3ccc(F)cc3s2)o1 | > 59.6 µM (inactive)
2 | COc1ccc(-c2nnc(Nc3nc4c(F)cccc4s3)o2)c(OC)c1 | > 59.6 µM (inactive)
3 | Cn1c(SCC(=O)NCC2CCCO2)ncc(C(=O)Nc2ccccc2)c1=O (configuration not stated) | > 59.6 µM (inactive)
4 | Clc1ccc(-c2nnc(Nc3nc4cc5c(cc4s3)OCO5)o2)cc1 | > 59.6 µM (inactive)
5 | COc1cccc2sc(Nc3nnc(-c4ccc(F)cc4)o3)nc12 | > 59.6 µM (inactive)
6 | COc1ccccc1NC(=O)c1cnc(SCC(=O)Nc2ccc3c(c2)OCO3)n(C)c1=O | > 59.6 µM (inactive)
7 | COc1ccc(-c2nnc(Nc3nc4cc(OC)ccc4s3)o2)c(OC)c1 | > 59.6 µM (inactive)
8 | CSc1ccc2nc(Nc3nnc(-c4ccccc4Cl)o3)sc2c1 | > 59.6 µM (inactive)
9 | COc1ccc(-c2nnc(Nc3nc4ccc(OC)cc4s3)o2)c(OC)c1 | > 59.6 µM (inactive)
10 | Cn1c(SCC(=O)NCC2CCCO2)ncc(C(=O)Nc2ccc(F)cc2)c1=O (configuration not stated) | > 59.6 µM (inactive)
11 | COc1ccccc1NC(=O)c1cnc(SCC(=O)NCC2CCCO2)n(C)c1=O (configuration not stated) | > 59.6 µM (inactive)
12 | Clc1ccccc1-c1nnc(Nc2nc3cc4c(cc3s2)OCO4)o1 | > 59.6 µM (inactive)
13 | COc1ccccc1NC(=O)c1cnc(SCC(=O)NCCc2ccccc2)n(C)c1=O | > 59.6 µM (inactive)
14 | COc1ccccc1NC(=O)c1cnc(SCC(=O)NCc2ccccc2)n(C)c1=O | > 59.6 µM (inactive)
15 | CCc1nnc(NC(=O)CSc2ncc(C(=O)Nc3ccc(C)c(C)c3)c(=O)n2C)s1 | > 59.6 µM (inactive)
16 | COc1ccc(-c2nnc(Nc3nc4c(OC)cccc4s3)o2)c(OC)c1 | > 59.6 µM (inactive)

Row | SMILES | EC50
17 | Fc1cccc2sc(Nc3nnc(-c4ccccc4Cl)o3)nc12 | > 59.6 µM (inactive)
18 | COc1ccccc1-c1nnc(Nc2nc3c(OC)cccc3s2)o1 | > 59.6 µM (inactive)
19 | Cn1c(SCC(=O)NCC2CCCO2)ncc(C(=O)Nc2ccc(Cl)cc2)c1=O (configuration not stated) | > 59.6 µM (inactive)
20 | COc1ccc(-c2nnc(Nc3nc4ccc(F)cc4s3)o2)c(OC)c1 | > 59.6 µM (inactive)
21 | Fc1ccc(-c2nnc(Nc3nc4c(F)cccc4s3)o2)cc1 | > 59.6 µM (inactive)
22 | COc1ccccc1CNC(=O)CSc1ncc(C(=O)Nc2ccccc2)c(=O)n1C | > 59.6 µM (inactive)
23 | COc1ccccc1NC(=O)c1cnc(SCC(=O)Nc2cc(C)on2)n(C)c1=O | > 59.6 µM (inactive)
24 | Cc1ccc(NC(=O)c2cnc(SCC(=O)Nc3cccc(C(F)(F)F)c3)n(C)c2=O)cc1C | > 59.6 µM (inactive)
25 | COc1ccc(-c2nnc(Nc3nc4ccc(SC)cc4s3)o2)c(OC)c1 | > 59.6 µM (inactive)
26 | COc1cccc2sc(Nc3nnc(-c4ccccc4)o3)nc12 | > 59.6 µM (inactive)
27 | COc1ccccc1NC(=O)c1cnc(SCC(=O)Nc2nc3ccccc3s2)n(C)c1=O | > 59.6 µM (inactive)
28 | COc1ccc(-c2nnc(Nc3nc4c(OC)cccc4s3)o2)cc1 | > 59.6 µM (inactive)
29 | COc1ccccc1NC(=O)c1cnc(SCC(=O)NCc2ccc3c(c2)OCO3)n(C)c1=O | > 59.6 µM (inactive)
30 | COc1cccc2sc(Nc3nnc(-c4ccccc4Cl)o3)nc12 | > 59.6 µM (inactive)
31 | CSc1ccc2nc(Nc3nnc(-c4ccc5c(c4)OCCO5)o3)sc2c1 | > 59.6 µM (inactive)
32 | Fc1ccc2nc(Nc3nnc(-c4ccccc4Cl)o3)sc2c1 | > 59.6 µM (inactive)

— PubChem BioAssay AID651792 (The Scripps Research Institute Molecular Screening Center, 2012)
